Key:
[1] = test system: MCF7-WT cells (WT ER, MCF7.6); experiment: In vitro proliferation (viability) assay, CellTiter-Glo, MCF7-WT; format: cell-based; conditions: Homo sapiens, CTG on day 6 compared to day 0, read-out: WT ER CTGlo MCF7.6 GI50 Mean
Method: (§1) MCF7 BUS cells (Coser, et al., (2003) PNAS 100(24): 13994-13999) were maintained in Dulbecco's Modified Eagle Medium supplemented with 10%/o FBS, 4 mM L-glutamine and 1× non-essential amino acids. Lenti-X 293T cells (Clontech, Cat #632180) were routinely cultured in Dulbecco's Modified Eagle Medium supplemented with 10% FBS.
(§2) The QuikChange II XL Site-Directed Mutagenesis Kit (Agilent Technologies, Cat #200523) was used to generate Y537S, Y537C, Y537N and D538G mutations within the ERα exon 8. […]
(§3) MCF7-WT and —Y537S cells were seeded at 1500 cells/well in black-walled 96-well plates (assay plates. Costar, Cat #3904). In parallel, cells were also seeded in a separate 96-well plate (8 wells/cell line, control plate) for which a CTG (CellTiter-Glo® Luminescent Viability Assay, Promega, Cat #G7572) was measured the following day (day 0 reading). The day 0 reading was used for the GI50 calculation at the termination of the experiment. […] CTG was measured and compared to day 0 readings from control plate to assess GI50.

[2] = test system: MCF7-Y537S cells (Y537S ER, MCF7.7); experiment: In vitro proliferation (viability) assay, CellTiter-Glo, MCF7-Y537S; format: cell-based; conditions: Homo sapiens, CTG on day 6 compared to day 0, read-out: Y537S ER CTGlo MCF7.7 GI50 Mean
Method: as §1, §2, §3

[3] = test system: MCF7 cells with ectopic expression of ERα Y537S/N/C, D538G; experiment: In vitro proliferation of wild-type and mutant ER-bearing MCF7 lines with clinical therapies (FIG. 1); format: cell-based, human
Method: 48 h post-transfection, virus containing media was filtered and added to MCF7 cells in the presence of 8 μg/ml polybrene overnight. Two days following infection, cells were placed under selection with 10 μg/ml blasticidin for 2 weeks for stable expression.
In parallel, cells were also seeded in a separate 96-well plate (8 wells/cell line, control plate) for which a CTG (CellTiter-Glo® Luminescent Viability Assay, Promega, Cat #G7572) was measured the following day (day 0 reading). The day 0 reading was used for the GI50 calculation at the termination of the experiment. The day following seeding, compounds were added to assay plates. Briefly, a 1:4 serial dilution was prepared in DMSO at 200× final concentration for a total of 10 concentrations (9 dilutions containing compound and one is DMSO only). Serially diluted compounds were pipetted into medium to prepare a compound-medium mix at 10× final concentration. 10 μl of compound-medium mix was added to MCF7-WT and —Y537S cells at 3 wells/concentration (triplicate for each concentration). On day 3, media-compound was removed and replaced with fresh media/compound as described above. On day 6. CTG was measured and compared to day 0 readings from control plate to assess GI50.

| SMILES | GI50 [1] [nM] | GI50 [2] [nM] | Resistance of ERα mutant-bearing MCF7 lines relative to control lines [3] |
| --- | --- | --- | --- |
| CC/C(=C(/c1ccc(OCCNC/C=C/C(=O)N(C)C)cc1)c1ccc2[nH]ccc2c1)c1ccccc1 [Compound 102, (E)-4-(2-(4-((E)-1-(1H-indol-5-yl)-2-phenylbut-1-enyl)phenoxy)ethylamino)-N,N-dimethylbut-2-enamide] | 1.75 | 27.5 |  |
| C[C@]12CC[C@@H]3c4ccc(O)cc4C[C@@H](CCCCCCCCC[S+]([O-])CCCC(F)(F)C(F)(F)F)[C@H]3[C@@H]1CC[C@@H]2O (some centres unmarked) [fulvestrant] |  |  | phenotypic resistance |
| O=C(c1ccc(OCCN2CCCCC2)cc1)c1c(-c2ccc(O)cc2)sc2cc(O)ccc12 [raloxifene] |  |  | phenotypic resistance |
| CC/C(=C(\c1ccccc1)c1ccc(OCCN(C)C)cc1)c1ccccc1 [tamoxifen] |  |  | phenotypic resistance |
